Results published in the supplement of paper PMC11061612.

What was measured:
Carboplatin = compound: C1CC(C1)(C(=O)[O-])C(=O)[O-].N.N.[Pt+2] [Carboplatin]; details: max 10 µM
In short: (§1)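 Viability was measured with CellTiter-Glo 2.0 luminescence after 72 hours of dosing at a final DMSO of typically 0.2%, and scaled between blank-well and DMSO-well means. Beforehand, cancer cell lines sat 24 hours at 37°C and 5% CO2 in 1536-well plates in 7.5 μl DMEM/F12 or RPMI with 10% FBS. A non-linear mixed effects model fitted two-parameter logistic curves to the dose responses. The single-agent IC50 comes from these fits.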

AZD5363 = compound: C1CN(CCC1(C(=O)N[C@@H](CCO)C2=CC=C(C=C2)Cl)N)C3=NC=NC4=C3C=CN4 [AZD5363]; details: max 10 µM
In short: as §1

AZD1775 = compound: C=CCn1c(=O)c2cnc(Nc3ccc(N4CCN(C)CC4)cc3)nc2n1-c1cccc(C(C)(C)O)n1 [AZD1775]; details: max 3 µM
In short: as §1

Trametinib = compound: CC(=O)Nc1cccc(-n2c(=O)n(C3CC3)c(=O)c3c(Nc4ccc(I)cc4F)n(C)c(=O)c(C)c32)c1 [Trametinib]; details: max 1 µM
In short: as §1

Paclitaxel = compound: CC(=O)O[C@H]1C(=O)[C@@]2(C)[C@H]([C@H](OC(=O)c3ccccc3)[C@]3(O)C[C@H](OC(=O)[C@H](O)[C@@H](NC(=O)c4ccccc4)c4ccccc4)C(C)=C1C3(C)C)[C@]1(OC(C)=O)CO[C@@H]1C[C@@H]2O [Paclitaxel]; details: max 3 µM
In short: as §1

Palbociclib = compound: CC(=O)c1c(C)c2cnc(Nc3ccc(N4CCNCC4)cn3)nc2n(C2CCCC2)c1=O [Palbociclib]; details: max 10 µM
In short: as §1

AZD1390 = compound: CC(C)n1c(=O)n(C)c2cnc3cc(F)c(-c4ccc(OCCCN5CCCCC5)nc4)cc3c21 [AZD1390]; details: max 0.3 µM
In short: as §1

Venetoclax = compound: CC1(C)CCC(CN2CCN(c3ccc(C(=O)NS(=O)(=O)c4ccc(NCC5CCOCC5)c([N+](=O)[O-])c4)c(Oc4cnc5[nH]ccc5c4)c3)CC2)=C(c2ccc(Cl)cc2)C1 [Venetoclax]; details: max 1 µM
In short: as §1

Dasatinib = compound: CC1=C(C(=CC=C1)Cl)NC(=O)C2=CN=C(S2)NC3=CC(=NC(=N3)C)N4CCN(CC4)CCO [Dasatinib]; details: max 2 µM
In short: as §1

SG3199 = compound: CC1=CN2[C@@H](C1)C=NC3=CC(=C(C=C3C2=O)OC)OCCCCCOC4=C(C=C5C(=C4)N=C[C@@H]6CC(=CN6C5=O)C)OC [SG3199]; details: max 0.001 µM
In short: as §1

AZD2811 = compound: CCN(CCO)CCCOc1ccc2c(Nc3cc(CC(=O)Nc4cccc(F)c4)[nH]n3)ncnc2c1 [AZD2811]; details: max 1 µM
In short: as §1

SN-38 = compound: CCc1c2c(nc3ccc(O)cc13)-c1cc3c(c(=O)n1C2)COC(=O)[C@]3(O)CC [SN-38]; details: max 0.3 µM
In short: as §1

AZD0156 = compound: CN(C)CCCOc1ccc(-c2ccc3ncc4c(c3c2)n(C2CCOCC2)c(=O)n4C)cn1 [AZD0156]; details: max 3 µM
In short: as §1

AZD4320 = compound: CN(CC[C@H](CSC1=CC=CC=C1)NC2=C(C=C(C=C2)S(=O)(=O)NC(=O)C3=CC=C(C=C3)N4CCC(CC4)[C@H](C5=CC=CC=C5C6=CC=C(C=C6)Cl)O)S(=O)(=O)C(F)(F)F)CCO [AZD4320]; details: max 1 µM
In short: as §1

Alisertib = compound: COc1cc(Nc2ncc3c(n2)-c2ccc(Cl)cc2C(c2c(F)cccc2OC)=NC3)ccc1C(=O)O [Alisertib]; details: max 10 µM
In short: as §1

Etoposide = compound: COc1cc([C@@H]2c3cc4c(cc3[C@@H](O[C@@H]3O[C@@H]5CO[C@@H](C)O[C@H]5[C@H](O)[C@H]3O)[C@H]3COC(=O)[C@H]23)OCO4)cc(OC)c1O [Etoposide]; details: max 10 µM
In short: as §1

Gefitinib = compound: COc1cc2ncnc(Nc3ccc(F)c(Cl)c3)c2cc1OCCCN1CCOCC1 [Gefitinib]; details: max 10 µM
In short: as §1

Prexasertib = compound: COc1cccc(OCCCN)c1-c1cc(Nc2cnc(C#N)cn2)n[nH]1 [Prexasertib]; details: max 1 µM
In short: as §1

Doxorubicin = compound: COc1cccc2c1C(=O)c1c(O)c3c(c(O)c1C2=O)C[C@@](O)(C(=O)CO)C[C@@H]3O[C@H]1C[C@H](N)[C@H](O)[C@H](C)O1 [Doxorubicin]; details: max 1 µM
In short: as §1

AZD5153 = compound: COc1nnc2ccc(N3CCC(c4ccc(OCCN5CCN(C)C(=O)[C@H]5C)cc4)CC3)nn12 [AZD5153]; details: max 1 µM
In short: as §1

Lapatinib = compound: CS(=O)(=O)CCNCc1ccc(-c2ccc3ncnc(Nc4ccc(OCc5cccc(F)c5)c(Cl)c4)c3c2)o1 [Lapatinib]; details: max 10 µM
In short: as §1

AZD8186 = compound: C[C@@H](Nc1cc(F)cc(F)c1)c1cc(C(=O)N(C)C)cc2c(=O)cc(N3CCOCC3)oc12 [AZD8186]
In short: as §1

Crizotinib = compound: C[C@@H](Oc1cc(-c2cnn(C3CCNCC3)c2)cnc1N)c1c(Cl)ccc(F)c1Cl [Crizotinib]; details: max 10 µM
In short: as §1

Savolitinib = compound: C[C@@H](c1ccc2nccn2c1)n1nnc2ncc(-c3cnn(C)c3)nc21 [Savolitinib]; details: max 1 µM
In short: as §1

AZD6738 = compound: C[C@@H]1COCCN1C2=NC(=NC(=C2)C3(CC3)[S@](=N)(=O)C)C4=C5C=CNC5=NC=C4 [AZD6738]; details: max 10 µM
In short: as §1

AZD5991 = compound: Cc1c2c(nn1C)CSCc1cc(n(C)n1)CSc1cc(c3ccccc3c1)OCCCc1c(C(=O)O)n(C)c3c-2c(Cl)ccc13 [AZD5991]; details: max 1 µM
In short: as §1

AZD7648 = compound: Cc1cc2ncnn2cc1Nc1ncc2c(n1)n(C1CCOCC1)c(=O)n2C [AZD7648]; details: max 10 µM
In short: as §1

Taselisib = compound: Cc1nc(-c2cn3c(n2)-c2ccc(-c4cnn(C(C)(C)C(N)=O)c4)cc2OCC3)n(C(C)C)n1 [Taselisib]; details: max 10 µM
In short: as §1

Selumetinib = compound: Cn1cnc2c(F)c(Nc3ccc(Br)cc3Cl)c(C(=O)NOCCO)cc21 [Selumetinib]; details: max 10 µM
In short: as §1

SRA737 = compound: N#Cc1cnc(Nc2cc(NC[C@H]3CNCCO3)c(C(F)(F)F)cn2)cn1 [SRA737]; details: max 10 µM
In short: as §1

MK-2206 = compound: NC1(c2ccc(-c3nc4ccn5c(=O)[nH]nc5c4cc3-c3ccccc3)cc2)CCC1 [MK-2206]; details: max 10 µM
In short: as §1

Gemcitabine = compound: Nc1ccn([C@@H]2O[C@H](CO)[C@@H](O)C2(F)F)c(=O)n1 [Gemcitabine]; details: max 0.3 µM
In short: as §1

[1] = compound: O=C(Nc1ccc2[nH]nc(-c3ccncc3)c2c1)[C@@H]1CCN(CC(=O)N2CCN(c3ccc(-c4ncccn4)cc3)CC2)C1; details: max 5 µM
In short: as §1

Olaparib = compound: O=C(c1cc(Cc2n[nH]c(=O)c3ccccc23)ccc1F)N1CCN(C(=O)C2CC2)CC1 [Olaparib]; details: max 10 µM
In short: as §1

5-Fluorouracil = compound: O=c1[nH]cc(F)c(=O)[nH]1 [5-Fluorouracil]; details: max 20 µM
In short: as §1

Capivasertib = compound: C1CN(CCC1(C(=O)N[C@@H](CCO)C2=CC=C(C=C2)Cl)N)C3=NC=NC4=C3C=CN4 [Capivasertib]; details: max 10 µM
In short: as §1

Row | Cell Line | IC50, cell viability 72 h (Carboplatin) | IC50, cell viability 72 h (AZD5363) | IC50, cell viability 72 h (AZD1775) | IC50, cell viability 72 h (Trametinib) | IC50, cell viability 72 h (Paclitaxel) | IC50, cell viability 72 h (Palbociclib) | IC50, cell viability 72 h (AZD1390) | IC50, cell viability 72 h (Venetoclax) | IC50, cell viability 72 h (Dasatinib) | IC50, cell viability 72 h (SG3199) | IC50, cell viability 72 h (AZD2811) | IC50, cell viability 72 h (SN-38) | IC50, cell viability 72 h (AZD0156) | IC50, cell viability 72 h (AZD4320) | IC50, cell viability 72 h (Alisertib) | IC50, cell viability 72 h (Etoposide) | IC50, cell viability 72 h (Gefitinib) | IC50, cell viability 72 h (Prexasertib) | IC50, cell viability 72 h (Doxorubicin) | IC50, cell viability 72 h (AZD5153) | IC50, cell viability 72 h (Lapatinib) | IC50, cell viability 72 h (AZD8186; max 10 µM) | IC50, cell viability 72 h (Crizotinib) | IC50, cell viability 72 h (Savolitinib) | IC50, cell viability 72 h (AZD6738) | IC50, cell viability 72 h (AZD5991) | IC50, cell viability 72 h (AZD7648) | IC50, cell viability 72 h (Taselisib) | IC50, cell viability 72 h (Selumetinib) | IC50, cell viability 72 h (SRA737) | IC50, cell viability 72 h (MK-2206) | IC50, cell viability 72 h (Gemcitabine) | IC50, cell viability 72 h [1] | IC50, cell viability 72 h (Olaparib) | IC50, cell viability 72 h (5-Fluorouracil) | IC50, cell viability 72 h (Capivasertib) | IC50, cell viability 72 h (AZD8186; max 3 µM)
1 | A375 (Melanoma) | > 10 µM | > 10 µM | 0.813 µM | 0.0126 µM | 0.042 µM | > 10 µM | > 0.3 µM | > 1 µM | > 2 µM | > 0.001 µM | > 1 µM | 0.0074 µM | > 3 µM | > 1 µM | 8.15 µM | 2.61 µM | > 10 µM | 0.21 µM | 0.265 µM | > 1 µM | > 10 µM | > 10 µM | > 10 µM | > 1 µM | 9.24 µM | > 1 µM | > 10 µM | > 10 µM | 0.693 µM | > 10 µM | > 10 µM | 0.00974 µM | 0.538 µM | > 10 µM | > 20 µM |  | 
2 | JJN-3 (Plasma Cell Myeloma) |  |  | 0.654 µM | > 1 µM |  | > 10 µM | > 0.3 µM | > 1 µM | > 2 µM | > 0.001 µM | > 1 µM | 0.163 µM | > 3 µM | 0.866 µM | > 10 µM |  | > 10 µM | 0.0274 µM | 0.994 µM | 0.0476 µM | > 10 µM |  | > 10 µM | > 1 µM | 5.74 µM | 0.0495 µM | > 10 µM | > 10 µM | > 10 µM |  | > 10 µM |  |  | > 10 µM |  | > 10 µM | > 3 µM
3 | NCI-H835 (Other Solid Carcinomas) | > 10 µM | > 10 µM | 1.1 µM | > 1 µM | 2.77 µM | > 10 µM | > 0.3 µM | > 1 µM | > 2 µM | > 0.001 µM | > 1 µM | > 0.3 µM | > 3 µM | 0.218 µM |  | > 10 µM | > 10 µM | > 1 µM | > 1 µM | > 1 µM | > 10 µM | > 10 µM | 9.99 µM | > 1 µM | > 10 µM | > 1 µM | > 10 µM | 5.25 µM | > 10 µM | > 10 µM | > 10 µM | > 0.3 µM | > 5 µM | > 10 µM | > 20 µM |  | 
4 | NCI-H1944 (Lung Adenocarcinoma) |  |  | 0.839 µM | 0.733 µM |  | > 10 µM | > 0.3 µM | > 1 µM | > 2 µM | > 0.001 µM | > 1 µM | 0.134 µM | > 3 µM | > 1 µM | 4.87 µM |  | > 10 µM | 0.134 µM | > 1 µM | 0.491 µM | > 10 µM |  | > 10 µM | > 1 µM | 3.98 µM | > 1 µM | > 10 µM | 1.6 µM | > 10 µM |  | > 10 µM |  |  | > 10 µM |  | 7.93 µM | > 3 µM
5 | OCI-M1 (Acute Myeloid Leukemia) |  |  | 0.426 µM | 0.0354 µM |  | 9.53 µM | > 0.3 µM | > 1 µM | > 2 µM | > 0.001 µM | > 1 µM | 0.0134 µM | > 3 µM | 0.131 µM | 0.516 µM |  | > 10 µM | 0.0186 µM | 0.443 µM | 0.0162 µM | > 10 µM |  | 1.4 µM | > 1 µM | 0.657 µM | > 1 µM | > 10 µM | > 10 µM | 1.81 µM |  | > 10 µM |  |  | > 10 µM |  | > 10 µM | > 3 µM
6 | RS4-11 (B-Lymphoblastic Leukemia) |  |  | 0.268 µM | > 1 µM |  | 4.98 µM | > 0.3 µM | 0.00579 µM | > 2 µM | > 0.001 µM | 0.00884 µM | 0.00479 µM | > 3 µM | 0.00382 µM | 0.0322 µM |  | > 10 µM | 0.0167 µM | 0.46 µM | 0.191 µM | > 10 µM |  | 1.52 µM | > 1 µM | 1.39 µM | 0.723 µM | > 10 µM | 7.52 µM | > 10 µM |  |  |  |  | > 10 µM |  | 9.4 µM | > 3 µM
